Earlier results in patent US10755801B2, “Identifying peptides having T-cell-exposed motifs with known frequency of occurrence in a reference database” (IOGENETICS, LLC, priority 2014, dated 2020).
Ends that are not written are not given here.

Test system: CD8+ responses, HLA A 0201 restricted
Settings: MART-1 peptides, A*0201, melanoma patients; Kawakami

For GIGILTVIL, the “CD8+ T-cell response” value is listed as “stimulated a response”.
